For assay [1], the target named is T1, human GR (Homo sapiens, UniProt P04150).
T1 sequence (P04150 1-777): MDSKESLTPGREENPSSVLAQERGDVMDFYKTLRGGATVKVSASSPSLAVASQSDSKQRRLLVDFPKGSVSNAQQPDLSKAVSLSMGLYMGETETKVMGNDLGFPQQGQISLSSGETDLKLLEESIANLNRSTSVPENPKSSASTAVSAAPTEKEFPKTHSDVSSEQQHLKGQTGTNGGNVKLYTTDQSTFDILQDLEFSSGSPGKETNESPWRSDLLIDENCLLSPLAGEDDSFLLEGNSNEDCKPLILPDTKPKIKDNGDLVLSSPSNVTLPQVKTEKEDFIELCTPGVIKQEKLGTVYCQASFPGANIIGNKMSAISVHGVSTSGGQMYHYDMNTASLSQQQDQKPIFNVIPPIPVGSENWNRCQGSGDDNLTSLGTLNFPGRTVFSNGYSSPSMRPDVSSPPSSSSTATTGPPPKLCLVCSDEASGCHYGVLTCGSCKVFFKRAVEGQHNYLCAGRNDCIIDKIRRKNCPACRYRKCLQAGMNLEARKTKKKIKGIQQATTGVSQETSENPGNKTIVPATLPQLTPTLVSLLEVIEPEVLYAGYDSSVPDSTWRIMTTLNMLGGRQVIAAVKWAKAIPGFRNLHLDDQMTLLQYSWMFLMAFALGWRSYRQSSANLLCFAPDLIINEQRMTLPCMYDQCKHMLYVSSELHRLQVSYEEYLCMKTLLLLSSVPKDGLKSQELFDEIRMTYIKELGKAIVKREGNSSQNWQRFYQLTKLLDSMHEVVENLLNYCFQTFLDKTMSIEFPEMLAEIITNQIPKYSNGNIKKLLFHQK
Kind of assay: Trans-Activation Modulation of Glucocorticoid Receptor (GRAMMER), MMTV-LUC reporter gene. It is filed as cell-based. Also noted: endogenous in cells. The following applies: for Emax: A549, read-out: Transactivation A549 Cells GRAMMER Emax (%); for EC50: Table 1, A549 cells, IP = inflection point, read-out: Transactivation A549 Cells GRAMMER IP. An excerpt: Trans-Activation Modulation of Glucocorticoid Receptor (GRAMMER)
This assay assesses the ability of test compounds to control transcription from the MMTV-LUC reporter gene in lung adenocarcinoma A549 cells or HeLa cells, a human […] cell line that naturally expresses the human GR. The assay measures induction of a modified MMTV LTR/promoter linked to the LUC reporter gene.
The routine transient assay consists of plating 7,000-25,000 cells/well of a white, clear-bottom 96-well plate. Alternatively, 384-well plates can be used at a cell concentration of 10,000/well. The media that the cells are plated in is “exponential growth medium” which consists of phenol red-free RPMI1640 containing 10% FBS, 4 mM L-glutamine, 20 mM HEPES, 10 ug/mL human insulin, and 20 ug/mL gentamicin. Incubator conditions are 37° C. and 5% CO2. The transfection is done in batch mode. The cells are trypsinized and counted to the right cell number in the proper amount of fresh media. It is then gently mixed with the FuGene6/DNA mix and plated onto the 96 or 384-well plate, all the wells receive 100 uL or 40 uL, respectively, of medium+lipid/DNA complex then incubated 37° C. overnight. The transfection cocktail consists of serum-free OptiMEM, FuGene6 reagent and DNA. The manufacturer's (Roche Biochemical) protocol for cocktail setup is as follows: The lipid to DNA ratio is approximately 2.5:1 and the incubation time is 20 min at room temperature. Sixteen to 24 hours after transfection, the cells are treated with dexamethasone to a final concentration of 10 nM as well as the compound of interest, such that final DMSO (vehicle) concentration is equal to or less than 1%. Each plate also contains samples that are treated with 10 nM dexamethasone alone, which is used as the 100% activity control. The cells are exposed to the compounds for 24 hours. After 24 hours, the cells are lysed by a Promega cell culture lysis buffer for approximately 30 min and then the luciferase activity in the extracts is assayed in the 96-well format luminometer. In 384-well format, Steady-Glo (Promega) or Steady-Lite (PerkinElmer) can be used by adding an equal volume of reagent to the media present in each well. Activity induced by 10 nM dexamethasone alone is set at 100% activity. Antagonist activity is calculated by determining the decrease in dexamethasone-induced activity in response to compound treatment relative to samples that were treated with dexamethasone alone. […] This transactivation assay can be performed in an agonist and antagonist mode to identify these different activities. […]
On the technique in general: Reporter assays use an easily measured gene product as a stand-in for the process of interest.

Assay [2] has as its target T1, human GR. Briefly: Transrepression Assay (GITAR), TNFα-β-lactamase reporter gene in U937 cells. The following applies: for EC50: IP = inflection point, read-out: Transrepression U937 Cells GITAR IP; for GITAR > GRAMM % SEP: separation of GITAR Emax over GRAMMER Emax; for Emax: U-937. It is filed as cell-based. Also noted: U937 cells contain an endogenous glucocorticoid receptor (GR); endogenous in cells; host or cells: U937 cells stably transfected with the TNF-α promoter/β-lactamase reporter only. The method in brief: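 Reporter readout used CCF2-AM loading for 70–90 min at room temperature after overnight (~18 h, 37 °C) PMA (5 ng/ml final) and LPS (100 ng/ml final) stimulation of compound-treated (30–45 min) TNFα-β-lactamase U937 cells expressing native GR. Activity was normalised to 100 nM dexamethasone repression.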

[3] abbreviates: 100 nM dexamethasone = 100% activity, read-out: maximal activity in the transrepression assay.
The mark [4] stands for this setting: Table 1, U937 cells, activity repressed by 100 nM dexamethasone = 100%, read-out: Transrepression U937 Cells GITAR Emax (%).

As to `COC(=O)C1(NC(=O)c2ccccc2CC[C@]2(O)CCC3=Cc4c(cnn4-c4ccc(F)cc4)C[C@@]32C)CC1` [Example 26, methyl 1-[(2-{2-[(4αS,5R)-1-(4-fluorophenyl)-5-hydroxy-4α-methyl-1,4,4α,5,6,7-hexahydrocyclopenta[f]indazol-5-yl]ethyl}benzoyl)amino]cyclopropanecarboxylate], the Emax at human GR [1] is 24%; at human GR [2] (setting [3]), 5 to 100%; at human GR [2] (setting [4]) it was 39%. Also, the EC50 at human GR [1] was 39 nM; on human GR [2] (Table 1, U937 cells), 123 nM. Also, the “GITAR > GRAMM % SEP” value on human GR [2] (Table 1) is 15%.

`CC1(NC(=O)c2ccccc2CC[C@]2(O)CCC3=Cc4c(cnn4-c4ccc(F)cc4)C[C@@]32C)CC1` [Example 28, 2-{2-[(4αS,5R)-1-(4-fluorophenyl)-5-hydroxy-4α-methyl-1,4,4α,5,6,7-hexahydrocyclopenta[f]indazol-5-yl]ethyl}-N-(1-methylcyclopropyl)benzamide]: the Emax is 28% on human GR [1], 5 to 100% at human GR [2] (setting [3]) and 72% on human GR [2] (setting [4]). The EC50 on human GR [1] amounted to 48 nM; at human GR [2] (Table 1, U937 cells), 65 nM. In addition, at human GR [2] (Table 1), the “GITAR > GRAMM % SEP” value was found to be 43%.

With `CC(C)CNC(=O)c1ccccc1CC[C@]1(O)CCC2=Cc3c(cnn3-c3ccc(F)cc3)C[C@@]21C` [Example 29, 2-{2-[(4αS,5R)-1-(4-fluorophenyl)-5-hydroxy-4α-methyl-1,4,4α,5,6,7-hexahydrocyclopenta[f]indazol-5-yl]ethyl}-N-isobutylbenzamide], the figures for the Emax at human GR [1], at human GR [2] (setting [3]) and on human GR [2] (setting [4]) were 24%, 5 to 100% and 61%, respectively. Also, the EC50 amounted to 95 nM on human GR [1] and 190 nM at human GR [2] (Table 1, U937 cells). The “GITAR > GRAMM % SEP” value at human GR [2] (Table 1) stood at 37%.

In the case of `CCCNC(=O)c1ccccc1CC[C@]1(O)CCC2=Cc3c(cnn3-c3ccc(F)cc3)C[C@@]21C` [Example 30, 2-{2-[(4αS,5R)-1-(4-fluorophenyl)-5-hydroxy-4α-methyl-1,4,4α,5,6,7-hexahydrocyclopenta[f]indazol-5-yl]ethyl}-N-propylbenzamide], the Emax on human GR [1] was 29%; on human GR [2] (setting [3]) it was 5 to 100%; on human GR [2] (setting [4]), 50%. For the same compound, the EC50 on human GR [1] was found to be 81 nM; on human GR [2] (Table 1, U937 cells), 127 nM. The “GITAR > GRAMM % SEP” value on human GR [2] (Table 1) is on record as 21%.

Take `CC(CNC(=O)c1ccccc1CC[C@]1(O)CCC2=Cc3c(cnn3-c3ccc(F)cc3)C[C@@]21C)C(F)(F)F` (stereo partly drawn) [Example 31, 2-{2-[(4αS,5R)-1-(4-fluorophenyl)-5-hydroxy-4α-methyl-1,4,4α,5,6,7-hexahydrocyclopenta[f]indazol-5-yl]ethyl}-N-(3,3,3-trifluoro-2-methylpropyl)benzamide]: the figures for the Emax at human GR [1], at human GR [2] (setting [3]) and at human GR [2] (setting [4]) were 9%, 5 to 100% and 48%, respectively. Further, the EC50 is 93 nM on human GR [1] and 183 nM at human GR [2] (Table 1, U937 cells). For the same compound, the “GITAR > GRAMM % SEP” value on human GR [2] (Table 1) was determined as 39%.

Consider `C=C(C)CNC(=O)c1ccccc1CC[C@]1(O)CCC2=Cc3c(cnn3-c3ccc(F)cc3)C[C@@]21C` [Example 32, 2-{2-[(4αS,5R)-1-(4-fluorophenyl)-5-hydroxy-4α-methyl-1,4,4α,5,6,7-hexahydrocyclopenta[f]indazol-5-yl]ethyl}-N-(2-methylprop-2-en-1-yl)benzamide], for which the figures for the Emax on human GR [1], at human GR [2] (setting [3]) and at human GR [2] (setting [4]) were 13%, 5 to 100% and 49%, respectively. For the same compound, the EC50 is 134 nM on human GR [1] and 277 nM at human GR [2] (Table 1, U937 cells). In addition, the “GITAR > GRAMM % SEP” value on human GR [2] (Table 1) turned out to be 36%.

For `C=CCNC(=O)c1ccccc1CC[C@]1(O)CCC2=Cc3c(cnn3-c3ccc(F)cc3)C[C@@]21C` [Example 33, N-allyl-2-{2-[(4αS,5R)-1-(4-fluorophenyl)-5-hydroxy-4α-methyl-1,4,4α,5,6,7-hexahydrocyclopenta[f]indazol-5-yl]ethyl}benzamide], the Emax on human GR [1] was 37%; on human GR [2] (setting [3]), 5 to 100%; on human GR [2] (setting [4]), 62%. Moreover, the EC50 at human GR [1] turned out to be 62 nM; at human GR [2] (Table 1, U937 cells) it was 123 nM. The “GITAR > GRAMM % SEP” value on human GR [2] (Table 1) stood at 25%.

`CC1(NC(=O)c2ccccc2CC[C@]2(O)CCC3=Cc4c(cnn4-c4ccccc4)C[C@@]32C)CC1` [Example 34, 2-{2-[(4αS,5R)-5-hydroxy-4α-methyl-1-phenyl-1,4,4α,5,6,7-hexahydrocyclopenta[f]indazol-5-yl]ethyl}-N-(1-methylcyclopropyl)benzamide]: the Emax at human GR [1] was 13%; on human GR [2] (setting [3]), 5 to 100%; on human GR [2] (setting [4]), 54%. Besides, the EC50 on human GR [1] amounted to 128 nM; on human GR [2] (Table 1, U937 cells), 208 nM. On human GR [2] (Table 1), the “GITAR > GRAMM % SEP” value came to 41%.

On to `CC(C)NC(=O)c1ccccc1CC[C@]1(O)CCC2=Cc3c(cnn3-c3ccc(F)cc3)C[C@@]21C` [Example 35, 2-{2-[(4αS,5R)-1-(4-fluorophenyl)-5-hydroxy-4α-methyl-1,4,4α,5,6,7-hexahydrocyclopenta[f]indazol-5-yl]ethyl}-N-isopropylbenzamide], for which the Emax at human GR [1] is 48%; on human GR [2] (setting [3]), 5 to 100%; at human GR [2] (setting [4]), 62%. The EC50 at human GR [1] turned out to be 60 nM; on human GR [2] (Table 1, U937 cells), 170 nM. Further, the “GITAR > GRAMM % SEP” value on human GR [2] (Table 1) is 14%.

Consider `C[C@]12Cc3cnn(-c4ccc(F)cc4)c3C=C1CC[C@@]2(O)CCc1ccccc1C(=O)NCC1CC1` [Example 37, N-(cyclopropylmethyl)-2-{2-[(4αS,5R)-1-(4-fluorophenyl)-5-hydroxy-4α-methyl-1,4,4α,5,6,7-hexahydrocyclopenta[r]indazol-5-yl]ethyl}benzamide], for which the Emax at human GR [1] is 57%; at human GR [2] (setting [3]), 5 to 100%; at human GR [2] (setting [4]), 58%. The EC50 at human GR [1] amounted to 65 nM; on human GR [2] (Table 1, U937 cells) it was 81 nM. Moreover, the “GITAR > GRAMM % SEP” value at human GR [2] (Table 1) is 1%.

`CC(CNC(=O)c1c(F)cccc1CC[C@]1(O)CCC2=Cc3c(cnn3-c3ccc(F)cc3)C[C@@]21C)C(F)(F)F` (stereo partly drawn) [Example 38, 2-fluoro-6-{2-[(4αS,5R)-1-(4-fluorophenyl)-5-hydroxy-4α-methyl-1,4,4α,5,6,7-hexahydrocyclopenta[f]indazol-5-yl]ethyl}-N-(3,3,3-trifluoro-2-methylpropyl)benzamide]: the Emax at human GR [1] is 15%; at human GR [2] (setting [3]), 5 to 100%; at human GR [2] (setting [4]), 58%. Further, the EC50 on human GR [1] was 91 nM; at human GR [2] (Table 1, U937 cells) it was 152 nM. Also, at human GR [2] (Table 1), the “GITAR > GRAMM % SEP” value is 44%.

Source of the values: patent US8119681B2, “2-[1-phenyl-5-hydroxy or methoxy-4alpha-methyl-hexahydrocyclopenta [ƒ]indazole-5-YL]ethyl phenyl derivatives as glucocorticoid receptor ligands” (Merck Sharp & Dohme Corp., priority 2006, dated 2012).
